These results are taken from patent publication US20210046109A1, “Suppressive Exosomes in Cancer and for Immunosuppression” (The Regents of the University of California, priority 2018, published 2021).

Peptide text beside a SMILES is read from it. * marks the point of attachment. Cbz = O=C(OCc1ccccc1)*

The subject of one experiment is PC3 and SK-MEL-28 cells. Nature of the experiment: Lysosome / proteasome inhibition, western analysis of PD-L1 protein levels. Type of experiment: cell-based. Particulars: for PD-L1 protein levels: both lines. The method, then: Next, potential differences in protein degradation were evaluated. The two main pathways for protein degradation are the lysosome and the proteasome. The small molecule Bafalomycin A1 (BafA1) inhibits lysosomal activity by blocking the V-ATPase hydrogen pump and thus acidification of the lysosome. An increase in the protein LC3B, a known target of the lysosome, confirmed effectiveness of the small molecule on PC3 and SK-MEL-28 cells. However, levels of PD-L1 in both lines were unaltered, implying little turnover of PD-L1 by the lysosome in these cells. The small molecule MG132 suppresses proteasome activity by blocking the 26s proteasome complex and consequentially proteolysis. The proteasome recognizes ubiquitin side chains on its targets. An increase in the presence of ubiquitinated proteins confirmed the effectiveness of MG132 on the two cells lines.

Another experiment has as its system cancer cells. Nature of the experiment: IFNγ treatment of cancer cells, PD-L1 in cellular and 100 k g fractions and vesicle number. Type of experiment: cell-based. The source says:
In vivo, tumor cells can mediate adaptive resistance by up-regulating PD-L1 in response to interferon-gamma (IFNγ) released by the cytotoxic T lymphocytes within the tumor bed. Therefore, it was explored whether, in addition to up-regulating cellular PD-L1, IFNγ may increase the secretion of PD-L1. Treatment of cancer cells with IFNγ led to an increase in PD-L1 in both the cellular and 100 k g fractions. […] Thus, similar to the cell surface membrane PD-L1, extracellular vesicular PD-L1 increased in response to IFNγ.

`CO/C1=C\C(C)=C\[C@@H](C)[C@@H](O)[C@@H](C)C/C(C)=C/C=C/[C@H](OC)[C@@H]([C@@H](C)[C@@H](O)[C@H](C)[C@@]2(O)C[C@@H](O)[C@H](C)[C@@H](C(C)C)O2)OC1=O` [BafA1, Bafalomycin A1]: in the experiment with PC3 and SK-MEL-28 cells (PC3 and SK-MEL-28 cells), the “protein LC3B, known target of the lysosome” value was “increase” and the PD-L1 protein levels result was “unaltered”.
`CC(C)C[C@@H](C=O)NC(=O)[C@H](CC(C)C)NC(=O)[C@H](CC(C)C)NC(=O)OCc1ccccc1` [MG132] (Cbz-Leu-Leu-Leu-aldehyde): in the experiment with PC3 and SK-MEL-28 cells (PC3 and SK-MEL-28 cells), the “presence of ubiquitinated proteins” value is listed as “increase” and the PD-L1 protein levels entry is reported as “minimally affected”. Also, the PD-L1 levels result in the experiment on PC3 and SK-MEL-28 cells (SK-MEL-28 cells only, not PC3) was “slightly up”.
As to “interferon-gamma [IFNγ, interferon-gamma released by cytotoxic T lymphocytes]”, in the experiment with cancer cells, the “PD-L1 in both the cellular and 100 k g fractions” value is recorded as “increase”; the “number of vesicles secreted” value is recorded as “did not increase”.
